# Counter-ions that a name gives are not always drawn.
# System: iPSC-CMs, iPSC-ECs and HUVECs phenotypes
# Assay: ToxPi 2.0 integration of POD values and physicochemical descriptors
# Parameters: species or system human
# Details: ToxPi-scaled (0-1) score; for huvec.cyto.24hr / huvec.mito.24hr / huvec.mitoint.24hr / huvec.nma.24hr / huvec.tc.24hr / huvec.mtl.18hr / huvec.tlps.18hr / huvec.tta.18hr / huvec.ttl.18hr: HUVECs; for huvec.mtl.18hr / huvec.tlps.18hr / huvec.tta.18hr / huvec.ttl.18hr / endo.mtl.18hr / endo.tlps.18hr / endo.tta.18hr / endo.ttl.18hr: tube formation; for cm.amp.avg.90min / cm.amp.cv.90min / cm.bpm.90min / cm.cam.90min / cm.decay.rise.90min / cm.mii.90min / cm.mito.90min / cm.spacing.cv.90min / cm.tc.90min / cm.amp.avg.24hrs / cm.amp.cv.24hrs / cm.bpm.24hrs / cm.cam.24hrs / cm.decay.rise.24hrs / cm.mii.24hrs / cm.mito.24hrs / cm.spacing.cv.24hrs / cm.tc.24hrs: iPSC cardiomyocytes; for endo.cyto.24hr / endo.mito.24hr / endo.mitoint.24hr / endo.nma.24hr / endo.tc.24hr / endo.mtl.18hr / endo.tlps.18hr / endo.tta.18hr / endo.ttl.18hr: iPSC endothelial cells
# Text: Phenotypic responses were quantitatively assessed using concentration–response modeling as detailed elsewhere ([Sirenko et al. 2017]). Briefly, phenotypic readouts were normalized to vehicle controls and fit to a four-parameter logistic model in R studio software (version 3.1.1; R Development Core Team). Following EPA guidance on dose–response modeling, a cutoff of one standard deviation across means of vehicle control (i.e., 0.5% vol/vol DMSO in cell culture media) wells was applied to determine the point-of-departure (POD) values ([U.S. EPA 2012]). In the absence of a concentration–response, the highest tested concentration (i.e., 100μM ) was assigned as “no observable adverse effect level.” The concentration–response assessment R script, as well as templates for vehicle and concentration–response data, are available as a supplement to Sirenko et al. ([2017]). The ability of physicochemical properties to predict differences in PODs were evaluated by multiregression and mixed-effects modeling using R.
# POD values were then integrated using ToxPi 2.0 ([Marvel et al. 2018]) software. In ToxPi, each slice is representative of cell type– and time-point–specific phenotypes. The area of each slice is proportional to the relative value (e.g., bioactivity or physicochemical descriptor value) of the chemical within the data set. ToxPi scores were used to rank PCBs and their metabolites according to their overall bioactivity and to determine variability in total observable biological responses and chemical characteristics for each major metabolite class and chlorination status (mono-, hexa-chlorinated). Additional visualizations such as dumbbell and principal components analysis plots were generated in R Studio (version 1.1.456; R version 3.5.1; R Development Core Team) using the ggplot2 package.
SMILES,huvec.cyto.24hr,huvec.mito.24hr,huvec.mitoint.24hr,huvec.nma.24hr,huvec.tc.24hr,huvec.mtl.18hr,huvec.tlps.18hr,huvec.tta.18hr,huvec.ttl.18hr,cm.amp.avg.90min,cm.amp.cv.90min,cm.bpm.90min,cm.cam.90min,cm.decay.rise.90min,cm.mii.90min,cm.mito.90min,cm.spacing.cv.90min,cm.tc.90min,cm.amp.avg.24hrs,cm.amp.cv.24hrs,further results
"COc1ccc(-c2ccc(Cl)cc2)cc1 [4'-OMe-PCB 3, 4′-methoxy-4-chlorobiphenyl]",0.2539,0.3347,0.2259,0.5435,0.2539,0.5905,0.1332,0.4823,0.3839,0.148,0.2333,0.4231,0,0,0,0,0.06946,0,0.1468,0,cm.bpm.24hrs: 0.4274; cm.cam.24hrs: 0.02517; cm.decay.rise.24hrs: 0.569; cm.mii.24hrs: 0; cm.mito.24hrs: 0; cm.spacing.cv.24hrs: 0.5026; cm.tc.24hrs: 0; endo.cyto.24hr: 0; endo.mito.24hr: 0; endo.mitoint.24hr: 0.218; endo.nma.24hr: 0; endo.tc.24hr: 0; endo.mtl.18hr: 0.3533; endo.tlps.18hr: 0.3362; endo.tta.18hr: 0.2327; endo.ttl.18hr: 0.2433
"Clc1ccc(-c2cc(Cl)c(Cl)c(Cl)c2)cc1Cl [PCB 126, 3,3′,4,4′,5-pentachlorobiphenyl]",0.3035,0,0,0,0.3035,0,0,0,0,0.3003,0,0.8534,0,1,0,0,0,0,0.3868,0.06292,cm.bpm.24hrs: 0.6773; cm.cam.24hrs: 0.3565; cm.decay.rise.24hrs: 1; cm.mii.24hrs: 0; cm.mito.24hrs: 0.557; cm.spacing.cv.24hrs: 0.3424; cm.tc.24hrs: 0.6297; endo.cyto.24hr: 1; endo.mito.24hr: 1; endo.mitoint.24hr: 0.315; endo.nma.24hr: 0; endo.tc.24hr: 1; endo.mtl.18hr: 0.1325; endo.tlps.18hr: 0.4903; endo.tta.18hr: 0.1238; endo.ttl.18hr: 0.0871
"COc1cc(Cl)c(-c2cc(Cl)ccc2Cl)cc1Cl [4-OMe-PCB 52, 4-methoxy-2,2′,5,5′-tetrachlorobiphenyl]",0.503,0.6182,0.7163,0.4778,0.503,0.3949,0.3694,0,0,0.7151,0.1921,0.6456,0.5317,0.5533,0.2088,0.6868,0.09243,0.4554,0,0.07106,cm.bpm.24hrs: 0.2075; cm.cam.24hrs: 0.1487; cm.decay.rise.24hrs: 0.2631; cm.mii.24hrs: 0.763; cm.mito.24hrs: 0.2211; cm.spacing.cv.24hrs: 0.2504; cm.tc.24hrs: 0.2416; endo.cyto.24hr: 0.1456; endo.mito.24hr: 0.1456; endo.mitoint.24hr: 0; endo.nma.24hr: 0.1018; endo.tc.24hr: 0.1602; endo.mtl.18hr: 0.06827; endo.tlps.18hr: 0.09286; endo.tta.18hr: 0.06026; endo.ttl.18hr: 0.05573
O=S(=O)(O)Oc1cc(-c2ccccc2)ccc1Cl [3-PCB 3 sulfate],0,0,0,0,0,0.4834,0.07929,0,0.09819,0.1033,0,0,0,0,0,0,0,0,0,0,cm.bpm.24hrs: 0; cm.cam.24hrs: 0; cm.decay.rise.24hrs: 0; cm.mii.24hrs: 0.391; cm.mito.24hrs: 0; cm.spacing.cv.24hrs: 0; cm.tc.24hrs: 0; endo.cyto.24hr: 0; endo.mito.24hr: 0; endo.mitoint.24hr: 0; endo.nma.24hr: 0; endo.tc.24hr: 0; endo.mtl.18hr: 0; endo.tlps.18hr: 0.4317; endo.tta.18hr: 0; endo.ttl.18hr: 0

# From paper PMC7377239, “Cardiovascular Effects of Polychlorinated Biphenyls and Their Major Metabolites” (Environmental Health Perspectives, 2020)
